# Measurements reported in patent publication US7700108B2, “Tumor antigen protein and use thereof” (Dainippon Sumitomo Pharma Co., Ltd., priority 2002, dated 2010).
# Where no end group is shown, it is not given here.
# Test system: TcOS2000cl-303 (CTL) with 293-EBNA-B55 cells (HLA-B* 5502)
# Experiment: LDH release assay: reactivity of CTL TcOS2000cl-303 to peptide-pulsed 293-EBNA-B55 cells
# Assay type: cell-based, human
# Conditions: 293-EBNA-B55 cells pulsed for 1 hour with peptide, co-cultured with TcOS2000cl-303; FIG. 5
# Procedure: The first screening involved the following procedures. A pool of about 100 cDNA clones ([…]) was introduced into 293-EBNA-B55 cells having been plated into a 96-well microplate at 8×10^4 cells/well by lipofection method (Lipofectamine 2000, Invitrogen). Pools of respective cDNA clones used for introduction were stored separately. Twenty-four-hour later, TcOS2000cl-303 cells (8×10^4) were added and cultivation continued for another 24 hours, when the cultured supernatant was recovered. The reactivity of CTL was evaluated by determining LDH released in the supernatant by cytotoxic effects using LDH Cytotoxicity Detection Kit (TAKARA BIO). […] As a result, the reactivity was detected in 20 wells. […] As a result, the reactivity was detected in 4 wells.
# Antigen peptide regions that bind to HLA-B* 5502 was identified from various peptides synthesized on the basis of the amino acid sequence (SEQ ID NO: 2) of tumor antigen protein PBF using as an index the reactivity of TcOS2000cl-303. 293-EBNA-B55A cells (8×10^4) were pulsed for 1 hour with a peptide having an amino acid sequence (Cys Thr Ala Cys Arg Trp Lys Ala Cys Gln Arg, SEQ ID NO: 46) corresponding to the amino acid sequence at position […] of SEQ ID NO: 2, co-cultured with TcOS2000cl-303 cells (4×10^4) and the reactivity was assessed by LDH release assay in the same manner as that described in Example 2. […]
sequence,measurement,value
CTACRWKACQR (cysteine pairing not given here) [SEQ ID NO: 46],reactivity of TcOS2000cl-303 (LDH release),reacted to peptide-pulsed 293-EBNA-B55 cells
